Structures can show the parent of a compound that is named as a salt.

This experiment relates to hair cells. Nature of the experiment: Hair cell toxicity assay in zebrafish (neomycin-induced hair cell death, DASPEI staining of neuromasts). The settings on record: Danio rerio; for Emax at 8.3 µM: maximum observed @ 8.3 μM test compound; for Emax at 8.3 µM / Emax at 25 µM / Emax at 2.8 µM: 200 micromolar neomycin, read-out: Max HC Protection (HCmax, % hair cell survival); for EC50: zebrafish larvae 5-7 dpf, 1 h pre-treatment, then 200 micromolar neomycin + test compound 30 min, read-out: HC50 (concentration that would produce 50% hair cell survival); for Emax at 25 µM: maximum observed @ 25 μM test compound; for Emax at 2.8 µM: maximum observed @ 2.8 μM test compound. The format is in vivo. A digest of the protocol:
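Hair cell survival, as % of untreated controls, came from DASPEI scoring (0-2 each, ten neuromasts on one side) in 5-7 dpf larvae. These had 1 h compound pre-exposure (0.010-25 μM), then 200 μM neomycin with compound for 30 min. HCmax is peak protection; HC50 interpolated between flanking concentrations only when ≥50% survive.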

On to `NC(=O)c1c(NC(=O)Nc2ccc(Cl)cc2)sc2c1CCN(CC1CCCC1)C2` [Example 17, 2-[3-(4-Chlorophenyl)ureido]-6-(cyclopentylmethyl)-4,5,6,7-tetrahydrothieno[2,3-c]pyridine-3-carboxamide hydrochloride], for which the Emax at 8.3 µM was determined as 65% and the EC50 was in the range of 1 to 10 µM.

For the compound `CN(C)C1CCc2c(sc(NC(=O)Nc3ccc(Cl)cc3)c2C(N)=O)C1` (centres unmarked) [Example 42, 2-[3-(4-Chlorophenyl)ureido]-6-(dimethylamino)-4,5,6,7-tetrahydrobenzo[b]thiophene-3-carboxamide hydrochloride], the Emax at 25 µM was determined as 90% and the EC50 was in the range of 1 to 10 µM. Take `CN1CCN(CCN2CCc3c(sc(NC(=O)Nc4ccc(Cl)cc4)c3C(N)=O)C2)CC1` [Example 45, 2-[3-(4-Chlorophenyl)ureido]-6-[2-(4-methylpiperazin-1-yl)ethyl]-4,5,6,7-tetrahydrothieno[2,3-c]pyridine-3-carboxamide hydrochloride]: the Emax at 25 µM was 78% and the EC50 lay within 1 to 10 µM. For `CC(C)CN1CCc2c(sc(NC(=O)Nc3ccc(Cl)c4ccccc34)c2C(N)=O)C1` [Example 39, 2-[3-(4-Chloronaphthalen-1-yl)ureido]-6-isobutyl-4,5,6,7-tetrahydrothieno[2,3-c]pyridine-3-carboxamide hydrochloride] the same measures were 56% and over 10 µM. Consider `CC(C)NC(=O)CCC[N+]1(C)CCc2c(sc(NC(=O)Nc3ccc(Cl)cc3)c2C(N)=O)C1` (centres unmarked) [Example 166, 3-Carbamoyl-2-[3-(4-chlorophenyl)ureido]-6-[4-(isopropylamino)-4-oxobutyl]-6-methyl-4,5,6,7-tetrahydrothieno[2,3-c]pyridin-6-ium trifluoroacetate], for which the Emax at 2.8 µM turned out to be 63% and the EC50 is 1 to 10 µM.

For `CC[N+]1(C)C2CCC1c1sc(NC(=O)Nc3ccc(Cl)cc3)c(C(N)=O)c1C2` (racemic) [Example 187, (+/−)-3-Carbamoyl-2-[3-(4-chlorophenyl)ureido]-9-ethyl-9-methyl-5,6,7,8-tetrahydro-4H-thienocyclohepten-5,8-iminium chloride], the Emax at 25 µM was found to be 72% and the EC50 lay within 1 to 10 µM. With `CN(C)C(=O)CC[N+]1(C)CCc2c(sc(NC(=O)Nc3ccc(Cl)cc3)c2C(N)=O)C1` (centres unmarked) [Example 194, 3-Carbamoyl-2-[3-(4-chlorophenyl)ureido]-6-[3-(dimethylamino)-3-oxopropyl]-6-methyl-4,5,6,7-tetrahydrothieno[2,3-c]pyridin-6-ium chloride], the Emax at 2.8 µM is 36%.

As for `CCN1CCc2c(sc(NC(=O)Nc3ccc(Cl)cc3)c2C(=O)NCCO)C1` [Example 101, 2-[3-(4-Chlorophenyl)ureido]-6-ethyl-N-(2-hydroxyethyl)-4,5,6,7-tetrahydrothieno[2,3-c]pyridine-3-carboxamide hydrochloride], the Emax at 25 µM was 74% and the EC50 was in the range of 1 to 10 µM. On the same counts, the results for `CN(C)C(=O)CCN1CCc2c(sc(NC(=O)Nc3ccc(Cl)cc3)c2C(N)=O)C1` [Example 53, 2-[3-(4-Chlorophenyl)ureido]-6-[3-(dimethylamino)-3-oxopropyl]-4,5,6,7-tetrahydrothieno[2,3-c]pyridine-3-carboxamide hydrochloride] are 103% and 1 to 10 µM.

As for `CC[N+]1(C)CCc2c(sc(NC(=O)Nc3ccc(C(=O)c4ccccc4)cc3)c2C(N)=O)C1` (centres unmarked) [Example 168, 2-[3-(4-Benzoylphenyl)ureido]-3-carbamoyl-6-ethyl-6-methyl-4,5,6,7-tetrahydrothieno[2,3-c]pyridin-6-ium iodide], the Emax at 2.8 µM was determined as 20%.

For the compound `CC(C)(C)CN1CCc2c(sc(NC(=O)Nc3ccc(Cl)cc3)c2C(N)=O)C1` [Example 27, 2-[3-(4-Chlorophenyl)ureido]-6-neopentyl-4,5,6,7-tetrahydrothieno[2,3-c]pyridine-3-carboxamide hydrochloride], the Emax at 25 µM was 79% and the EC50 fell in the range of 1 to 10 µM. For the compound `CC(C)(O)C[N+]1(C)CCc2c(sc(NC(=O)Nc3ccc(Cl)cc3)c2C(N)=O)C1` (centres unmarked) [Example 202, 3-Carbamoyl-2-[3-(4-chlorophenyl)ureido]-6-(2-hydroxy-2-methylpropyl)-6-methyl-4,5,6,7-tetrahydrothieno[2,3-c]pyridin-6-ium iodide], the Emax at 8.3 µM is 85% and the EC50 is under 1 µM. For `CC(C)[N+]1(C)CCc2c(sc(NC(=O)Nc3ccc(Cl)cc3)c2C(N)=O)C1` (centres unmarked) [Example 191, 3-Carbamoyl-2-[3-(4-chlorophenyl)ureido]-6-isopropyl-6-methyl-4,5,6,7-tetrahydrothieno[2,3-c]pyridin-6-ium iodide] the same measures were 80% and under 1 µM.

As to `CCN1CCc2c(sc(NC(=O)Nc3ccc(Cl)cc3)c2-c2nnco2)C1` [Example 104, 1-(4-chlorophenyl)-3-[6-ethyl-3-(1,3,4-oxadiazol-2-yl)-4,5,6,7-tetrahydrothieno[2,3-c]pyridin-2-yl]urea hydrochloride], the Emax at 25 µM came to 0%. Consider `CCN1CCc2c(sc(NC(=O)Nc3ccc4c(c3)CCCC4)c2C(N)=O)C1` [Example 227, 6-ethyl-2-{[(5,6,7,8-tetrahydronaphthalen-2-yl)carbamoyl]amino}-4H,5H,6H,7H-thieno[2,3-c]pyridine-3-carboxamide], for which the Emax at 25 µM turned out to be 80% and the EC50 lay in the range of 1 to 10 µM. On to `CC(C)(C)OC(=O)CCCC[N+]1(C)CCc2c(sc(NC(=O)Nc3ccc(Cl)cc3)c2C(N)=O)C1` (centres unmarked) [Example 155, 6-(5-tert-Butoxy-5-oxopentyl)-3-carbamoyl-2-[3-(4-chlorophenyl)ureido]-6-methyl-4,5,6,7-tetrahydrothieno[2,3-c]pyridin-6-ium iodide], for which the Emax at 2.8 µM was 75% and the EC50 is under 1 µM.

On to `CC(C)(C)OC(=O)NCCN1CCc2c(sc(NC(=O)Nc3ccc(Cl)cc3)c2C(N)=O)C1` [Example 10, tert-Butyl 2-{3-carbamoyl-2-[3-(4-chlorophenyl)ureido]-4,5-dihydrothieno[2,3-c]pyridin-6(7H)-yl}ethylcarbamate], for which the Emax at 8.3 µM came to 13%. For the compound `COCCC[N+]1(C)CCc2c(sc(NC(=O)Nc3ccc(Cl)cc3)c2C(N)=O)C1` (centres unmarked) [Example 141, 3-Carbamoyl-2-[3-(4-chlorophenyl)ureido]-6-(3-methoxypropyl)-6-methyl-4,5,6,7-tetrahydrothieno[2,3-c]pyridin-6-ium iodide], the Emax at 2.8 µM turned out to be 77% and the EC50 is under 1 µM. `CC(C(=O)OC(C)(C)C)N1CCc2c(sc(NC(=O)Nc3ccc(Cl)cc3)c2C(N)=O)C1` (racemic) [Example 59, (+/−)-tert-Butyl 2-{3-carbamoyl-2-[3-(4-chlorophenyl)ureido]-4,5-dihydrothieno[2,3-c]pyridin-6(7H)-yl}propanoate]: the Emax at 8.3 µM is 40%. Turning to `CCN1CCc2c(sc(NC(=O)Nc3ccc(C(=O)c4ccccc4)cc3)c2C(N)=O)C1` [Example 88, 2-[3-(4-Benzoylphenyl)ureido]-6-ethyl-4,5,6,7-tetrahydrothieno[2,3-c]pyridine-3-carboxamide], the Emax at 25 µM was found to be 88% and the EC50 lay in the range of 1 to 10 µM. For `NCCN1CCc2c(sc(NC(=O)Nc3ccc(Cl)cc3)c2C(N)=O)C1` [Example 11, 6-(2-Aminoethyl)-2-[3-(4-chlorophenyl)ureido]-4,5,6,7-tetrahydrothieno[2,3-c]pyridine-3-carboxamide dihydrochloride] the same measures were 68% and 1 to 10 µM. For `CC(C)C[N+]1(C)CCc2c(sc(NC(=O)Nc3ccc4ccccc4c3)c2C(N)=O)C1` (centres unmarked) [Example 175, 3-Carbamoyl-6-isobutyl-6-methyl-2-[3-(naphthalen-2-yl)ureido]-4,5,6,7-tetrahydrothieno[2,3-c]pyridin-6-ium iodide] the same measures were 111% and under 1 µM. `NC(=O)c1c(NC(=O)Nc2ccc(Cl)cc2)sc2c1CCN(CCC(=O)O)C2` [Example 52, 3-{3-Carbamoyl-2-[3-(4-chlorophenyl)ureido]-4,5-dihydrothieno[2,3-c]pyridin-6(7H)-yl}propanoic acid trifluoroacetate]: the Emax at 25 µM amounted to 33%. As for `CC(C)C[N+]1(C)CCc2c(sc(NC(=O)Nc3ccc(Cl)cc3)c2C(N)=O)C1` (centres unmarked) [Example 135, 3-carbamoyl-2-[3-(4-chlorophenyl)ureido]-6-isobutyl-6-methyl-4,5,6,7-tetrahydrothieno[2,3-c]pyridin-6-ium iodide], the Emax at 25 µM came out at 107% and the EC50 is under 1 µM. Regarding `CC(C)C(C)N1CCc2c(sc(NC(=O)Nc3ccc(Cl)cc3)c2C(N)=O)C1` (racemic) [Example 48, (+/−)-2-[3-(4-Chlorophenyl)ureido]-6-(3-methylbutan-2-yl)-4,5,6,7-tetrahydrothieno[2,3-c]pyridine-3-carboxamide hydrochloride], the Emax at 25 µM was 72% and the EC50 lay in the range of 1 to 10 µM.

In the case of `CCN1CCc2c(sc(NC(=O)Nc3cccnc3)c2C(N)=O)C1` [Example 69, 6-Ethyl-2-[3-(pyridin-3-yl)ureido]-4,5,6,7-tetrahydrothieno[2,3-c]pyridine-3-carboxamide dihydrochloride], the Emax at 25 µM worked out at 12%.

As to `NC(=O)c1c(NC(=O)Nc2ccc(Cl)cc2)sc2c1CCN(CCN1CCCCC1)C2` [Example 44, 2-[3-(4-chlorophenyl)ureido]-6-[2-(piperidin-1-yl)ethyl]-4,5,6,7-tetrahydrothieno[2,3-c]pyridine-3-carboxamide ditrifluoroacetate], the Emax at 25 µM was 98% and the EC50 lay within 1 to 10 µM.

The values are drawn from patent US9416141B2 (University of Washington through its Center for …, priority 2012, dated 2016).
